The values below come from patent publication US20150335637A1, “COMPOSITIONS AND METHODS FOR TREATING CUTANEOUS T CELL LYMPHOMA” (THE TRUSTEES OF THE UNIVERSITY OF PENNSYLVANIA, priority 2013, published 2015).

The subject of the test is cutaneous T-cell lymphoma (CTCL) lesions. The test is described as follows: Phase I open label trial of resiquimod gel, clinical response of skin lesions. The class given is in vivo, human.

Procedure: The final trial design calls for a total of 16-20 patients, with the first half cohort treated topically with 0.06% gel and the second half cohort treated topically with 0.03% gel.
According to the study design, treatment of only four to five target lesions is permitted for eight weeks; followed by four weeks of rest and another eight weeks of therapy. Final evaluation is conducted after four weeks off of therapy.

As to `CCOCc1nc2c(N)nc3ccccc3c2n1CC(C)(C)O` [resiquimod, 4-amino-α,α-dimethyl-2-ethoxymethyl-1H-imidazo[4,5-c]quinolin-1-ethanol], under “patient refractory to previous treatments, before application vs end of week 8”, the “skin lesions of one patient (FIG. 1)” value was “clears the treated lesions and induces resolution of distant lesions”. Also, for the setting “refractory early stage CTCL patients”, the “clinical response rates for treated and untreated lesions” value is listed as “high clinical response rates of both treated as well as distant, non-treated lesions”.
